Like-named read-outs stand apart in the source and are kept apart here.
How the values were obtained:
Assay in all cases: KINOMEscan ScanTK
Assay type in all cases: binding
[1] = molecular target: T1, TYRO3 (Homo sapiens, UniProt Q06418)
T1 construct: purchased Eurofins DiscoverX KINOMEscan (scanTK)
T1 sequence (Q06418 41-890): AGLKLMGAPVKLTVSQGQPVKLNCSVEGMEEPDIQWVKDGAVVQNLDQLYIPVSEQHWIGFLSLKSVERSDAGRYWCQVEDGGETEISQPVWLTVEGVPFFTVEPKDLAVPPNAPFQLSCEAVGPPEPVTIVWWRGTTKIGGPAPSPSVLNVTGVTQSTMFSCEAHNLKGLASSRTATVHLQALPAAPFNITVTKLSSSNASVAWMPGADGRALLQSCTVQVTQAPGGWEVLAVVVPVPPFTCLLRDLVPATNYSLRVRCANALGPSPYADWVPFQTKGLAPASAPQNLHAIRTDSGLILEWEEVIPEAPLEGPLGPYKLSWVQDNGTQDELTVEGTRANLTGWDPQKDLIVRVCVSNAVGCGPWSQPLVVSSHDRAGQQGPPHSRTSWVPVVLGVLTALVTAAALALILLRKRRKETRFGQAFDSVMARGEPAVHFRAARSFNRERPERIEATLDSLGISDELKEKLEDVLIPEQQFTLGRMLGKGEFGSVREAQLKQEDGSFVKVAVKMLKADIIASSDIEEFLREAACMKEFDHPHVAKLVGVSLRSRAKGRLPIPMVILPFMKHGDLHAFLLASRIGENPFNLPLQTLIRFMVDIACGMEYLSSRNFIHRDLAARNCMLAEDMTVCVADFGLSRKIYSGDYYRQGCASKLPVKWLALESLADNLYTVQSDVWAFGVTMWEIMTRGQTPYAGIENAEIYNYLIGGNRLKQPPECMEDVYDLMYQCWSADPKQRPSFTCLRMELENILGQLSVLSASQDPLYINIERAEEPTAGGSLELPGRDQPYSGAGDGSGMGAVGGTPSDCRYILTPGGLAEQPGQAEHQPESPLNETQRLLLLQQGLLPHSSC

[2] = molecular target: T2, DDR2 (Homo sapiens, UniProt Q16832)
T2 construct: purchased Eurofins DiscoverX KINOMEscan (scanTK)
T2 sequence (Q16832 22-855): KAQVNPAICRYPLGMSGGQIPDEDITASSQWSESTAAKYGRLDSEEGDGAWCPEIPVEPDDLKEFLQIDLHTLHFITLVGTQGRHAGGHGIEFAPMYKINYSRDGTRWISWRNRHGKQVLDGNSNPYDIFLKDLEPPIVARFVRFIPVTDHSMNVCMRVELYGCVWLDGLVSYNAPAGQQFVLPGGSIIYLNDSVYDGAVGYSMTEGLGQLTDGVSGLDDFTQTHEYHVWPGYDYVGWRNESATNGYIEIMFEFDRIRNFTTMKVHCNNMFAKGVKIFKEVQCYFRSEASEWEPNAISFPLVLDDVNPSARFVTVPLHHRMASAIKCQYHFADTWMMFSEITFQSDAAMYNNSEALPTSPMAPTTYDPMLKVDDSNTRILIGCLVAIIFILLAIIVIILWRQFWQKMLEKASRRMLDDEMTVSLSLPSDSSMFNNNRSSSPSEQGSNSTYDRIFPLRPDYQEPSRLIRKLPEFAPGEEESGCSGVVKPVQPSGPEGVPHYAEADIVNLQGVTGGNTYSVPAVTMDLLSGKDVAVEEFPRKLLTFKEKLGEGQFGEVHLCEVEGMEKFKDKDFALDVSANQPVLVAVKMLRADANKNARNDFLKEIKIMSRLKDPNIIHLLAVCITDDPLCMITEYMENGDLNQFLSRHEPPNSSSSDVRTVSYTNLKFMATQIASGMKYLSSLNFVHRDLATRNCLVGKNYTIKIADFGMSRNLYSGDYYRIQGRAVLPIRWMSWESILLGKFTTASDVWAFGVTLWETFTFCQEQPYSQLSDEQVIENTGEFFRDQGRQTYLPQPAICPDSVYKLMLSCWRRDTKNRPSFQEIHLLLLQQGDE

[3] = molecular target: T3, EPHA2 (Homo sapiens, UniProt P29317)
T3 construct: purchased Eurofins DiscoverX KINOMEscan (scanTK)
T3 sequence (P29317 24-976): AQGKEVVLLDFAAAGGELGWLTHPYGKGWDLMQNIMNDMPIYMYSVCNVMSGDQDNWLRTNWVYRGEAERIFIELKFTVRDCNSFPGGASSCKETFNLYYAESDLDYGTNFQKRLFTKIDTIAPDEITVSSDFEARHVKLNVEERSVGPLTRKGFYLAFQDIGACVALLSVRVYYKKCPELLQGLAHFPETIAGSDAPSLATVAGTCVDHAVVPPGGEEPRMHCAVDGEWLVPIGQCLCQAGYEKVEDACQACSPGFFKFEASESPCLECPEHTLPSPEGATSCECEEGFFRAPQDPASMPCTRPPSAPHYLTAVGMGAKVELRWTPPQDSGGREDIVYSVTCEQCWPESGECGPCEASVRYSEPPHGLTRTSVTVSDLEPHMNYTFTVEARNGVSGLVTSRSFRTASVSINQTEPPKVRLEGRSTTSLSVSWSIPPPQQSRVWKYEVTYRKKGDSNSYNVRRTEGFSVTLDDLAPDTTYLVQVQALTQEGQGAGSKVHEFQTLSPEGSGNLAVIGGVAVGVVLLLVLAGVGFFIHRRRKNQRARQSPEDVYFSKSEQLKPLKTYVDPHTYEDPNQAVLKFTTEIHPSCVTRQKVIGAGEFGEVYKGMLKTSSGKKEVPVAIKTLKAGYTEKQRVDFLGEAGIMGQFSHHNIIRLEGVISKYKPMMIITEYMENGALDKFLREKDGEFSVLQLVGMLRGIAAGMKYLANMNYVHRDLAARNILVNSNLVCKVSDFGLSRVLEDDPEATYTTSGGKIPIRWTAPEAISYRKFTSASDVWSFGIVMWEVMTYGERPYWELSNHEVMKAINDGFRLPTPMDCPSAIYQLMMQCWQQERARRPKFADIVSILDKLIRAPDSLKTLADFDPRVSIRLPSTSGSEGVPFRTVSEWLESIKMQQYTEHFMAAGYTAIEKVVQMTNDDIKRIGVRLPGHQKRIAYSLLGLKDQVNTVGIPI

[4] = molecular target: T4, BMX (Homo sapiens, UniProt P51813)
T4 construct: purchased Eurofins DiscoverX KINOMEscan (scanTK)
T4 sequence (P51813 1-675): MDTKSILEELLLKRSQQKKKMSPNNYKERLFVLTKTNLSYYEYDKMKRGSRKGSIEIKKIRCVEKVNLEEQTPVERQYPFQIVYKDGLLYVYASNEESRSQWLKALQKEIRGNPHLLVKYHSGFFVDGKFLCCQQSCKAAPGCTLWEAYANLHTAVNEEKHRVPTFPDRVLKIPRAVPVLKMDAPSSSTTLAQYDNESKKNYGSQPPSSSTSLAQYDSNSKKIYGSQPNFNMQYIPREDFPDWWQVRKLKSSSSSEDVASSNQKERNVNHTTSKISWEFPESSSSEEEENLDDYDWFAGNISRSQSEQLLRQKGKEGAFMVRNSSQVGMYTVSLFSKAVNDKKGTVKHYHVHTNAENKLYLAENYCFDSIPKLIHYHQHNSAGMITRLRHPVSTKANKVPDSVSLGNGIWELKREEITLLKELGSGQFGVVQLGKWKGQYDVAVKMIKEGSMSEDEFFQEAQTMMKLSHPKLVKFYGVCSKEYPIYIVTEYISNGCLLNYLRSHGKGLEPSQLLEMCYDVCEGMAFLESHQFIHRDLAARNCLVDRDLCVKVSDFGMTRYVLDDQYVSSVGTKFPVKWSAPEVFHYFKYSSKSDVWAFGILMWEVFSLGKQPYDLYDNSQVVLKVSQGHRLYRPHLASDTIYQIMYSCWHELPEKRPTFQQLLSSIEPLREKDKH

[5] = molecular target: T5, KIT(V559D,V654A) (Homo sapiens, UniProt P10721, V559D/V654A)
T5 construct: purchased Eurofins DiscoverX KINOMEscan (scanTK)
T5 sequence (P10721 26-976 V559D/V654A): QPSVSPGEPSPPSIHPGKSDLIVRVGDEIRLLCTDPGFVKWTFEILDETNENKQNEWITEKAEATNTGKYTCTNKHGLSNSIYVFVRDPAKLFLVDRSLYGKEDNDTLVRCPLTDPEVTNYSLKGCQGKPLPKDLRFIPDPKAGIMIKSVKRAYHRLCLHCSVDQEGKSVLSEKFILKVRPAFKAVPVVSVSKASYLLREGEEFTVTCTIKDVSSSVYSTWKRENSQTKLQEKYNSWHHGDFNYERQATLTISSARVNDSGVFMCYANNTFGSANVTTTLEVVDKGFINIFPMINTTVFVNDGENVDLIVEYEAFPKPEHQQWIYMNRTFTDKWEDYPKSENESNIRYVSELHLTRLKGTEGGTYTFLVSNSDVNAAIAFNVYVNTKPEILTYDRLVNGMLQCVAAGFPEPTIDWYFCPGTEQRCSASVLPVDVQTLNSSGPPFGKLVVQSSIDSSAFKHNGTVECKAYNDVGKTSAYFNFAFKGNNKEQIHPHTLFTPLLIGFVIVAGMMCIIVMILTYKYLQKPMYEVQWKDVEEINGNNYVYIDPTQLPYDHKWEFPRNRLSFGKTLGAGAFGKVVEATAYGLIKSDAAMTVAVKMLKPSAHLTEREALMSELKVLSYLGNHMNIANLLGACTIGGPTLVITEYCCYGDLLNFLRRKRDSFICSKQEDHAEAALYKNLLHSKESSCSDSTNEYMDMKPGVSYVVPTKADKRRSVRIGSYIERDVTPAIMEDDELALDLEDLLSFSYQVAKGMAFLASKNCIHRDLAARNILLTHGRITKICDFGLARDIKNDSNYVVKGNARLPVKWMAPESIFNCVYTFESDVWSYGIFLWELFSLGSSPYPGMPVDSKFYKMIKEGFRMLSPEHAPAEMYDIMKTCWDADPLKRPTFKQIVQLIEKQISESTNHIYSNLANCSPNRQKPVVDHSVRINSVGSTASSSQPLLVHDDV

[6] = @1000nM, DDR2, read-out: %Control
[7] = DDR2, read-out: %Control @1000nM

Structure (SMILES)	remaining binding at 1 µM ([1]; @1000nM, read-out: %Control) [%]	remaining binding at 1 µM ([1]; read-out: %Control @1000nM) [%]	remaining binding at 1 µM ([3]; @1000nM, read-out: %Control) [%]	remaining binding at 1 µM ([3]; read-out: %Control @1000nM) [%]	difference in %Control versus compound Ib at 1 µM ([4]; @1000nM) [%]	remaining binding at 1 µM ([4]; @1000nM, read-out: %Control) [%]	remaining binding at 1 µM ([4]; read-out: %Control @1000nM) [%]	remaining binding at 1 µM ([5]; @1000nM, read-out: %Control) [%]	remaining binding at 1 µM ([5]; read-out: %Control @1000nM) [%]	difference in %Control from reference compound Ib at 1 µM ([2]; @1000nM, DDR2) [%]	remaining binding at 1 µM [2, 6] [%]	remaining binding at 1 µM [2, 7] [%]	difference in %Control versus compound Ib at 1 µM ([3]; @1000nM) [%]	remaining binding at 1 µM ([2]; read-out: %Control) [%]	remaining binding at 1 µM ([2]; read-out: %Control @1000nM) [%]
C=CC(=O)N1CCC[C@@H](n2nc(-c3ccc(Oc4ccccc4)cc3)c3c(N)ncnc32)C1 [Compound 1g, Ibrutinib, reference compound]	34	34	100	100	–	–	–	–	–	–	–	–	–	97	97
CNC(=O)c1cnc(S(C)(=O)=O)nc1N1CCCC(n2nc(-c3ccc(Oc4ccccc4)cc3)c3c(N)ncnc32)C1 (stereo not shown) [Compound 8d, 4-(3-(4-Amino-3-(4-phenoxyphenyl)-1H-pyrazolo[3,4-d]pyrimidin-1-yl)piperidin-1-yl)-N-methyl-2-(methylsulfonyl)pyrimidine-5-carboxamide]	32	32	98	98	20	61	61	94	94	-15	82	82	-2	–	–

Now from value to molecule, other results behind:

remaining binding at 1 µM ([1]; @1000nM, read-out: %Control) [%]	remaining binding at 1 µM ([1]; read-out: %Control @1000nM) [%]	remaining binding at 1 µM ([3]; @1000nM, read-out: %Control) [%]	remaining binding at 1 µM ([3]; read-out: %Control @1000nM) [%]	difference in %Control versus compound Ib at 1 µM ([4]; @1000nM) [%]	remaining binding at 1 µM ([4]; @1000nM, read-out: %Control) [%]	remaining binding at 1 µM ([4]; read-out: %Control @1000nM) [%]	remaining binding at 1 µM ([5]; @1000nM, read-out: %Control) [%]	remaining binding at 1 µM ([5]; read-out: %Control @1000nM) [%]	difference in %Control from reference compound Ib at 1 µM ([2]; @1000nM, DDR2) [%]	remaining binding at 1 µM [2, 6] [%]	remaining binding at 1 µM [2, 7] [%]	difference in %Control versus compound Ib at 1 µM ([3]; @1000nM) [%]	Structure (SMILES)	remaining binding at 1 µM ([2]; read-out: %Control) [%]	remaining binding at 1 µM ([2]; read-out: %Control @1000nM) [%]
40	40	88	88	-3	38	38	90	90	-5	92	92	-12	Cc1cnc(S(C)(=O)=O)nc1N1CCCC(n2nc(-c3ccc(Oc4ccccc4)cc3)c3c(N)ncnc32)C1 (stereo not shown) [Compound 8a, 1-(1-(5-Methyl-2-(methylsulfonyl)pyrimidin-4-yl)piperidin-3-yl)-3-(4-phenoxyphenyl)-1H-pyrazolo[3,4-d]pyrimidin-4-amine]	–	–
33	33	99	99	12	53	53	86	86	-6	91	91	-1	COC(=O)c1cnc(S(C)(=O)=O)nc1N1CCCC(n2nc(-c3ccc(Oc4ccccc4)cc3)c3c(N)ncnc32)C1 (stereo not shown) [Compound 8b, Methyl 4-(3-(4-Amino-3-(4-phenoxyphenyl)-1H-pyrazolo[3,4-d]pyrimidin-1-yl)piperidin-1-yl)-2-(methylsulfonyl)pyrimidine-5-carboxylate]	–	–
40	40	98	98	28	69	69	97	97	-22	75	75	-2	CCOC(=O)c1cnc(S(C)(=O)=O)nc1N1CCC[C@@H](n2nc(-c3ccc(Oc4ccccc4)cc3)c3c(N)ncnc32)C1 [Compound 8c, Ethyl (R)-4-(3-(4-Amino-3-(4-phenoxyphenyl)-1H-pyrazolo[3,4-d]pyrimidin-1-yl)piperidin-1-yl)-2-(methylsulfonyl)pyrimidine-5-carboxylate]	–	–
